The nature of series [1]: Acute toxicity (LD50, Bliss method) of levamlodipine besylate hydrate composition tablets. The following applies: Kunming, mouse, in vivo. The method, then: In this experiment the tablet formulation is the one of Example 5, in which the crystalline water content of the levamlodipine besylate hydrate composition is 5.3%.
In this experiment, the LD50 is measured by two administration routes. […] Animals: Kunming mice, half male and half […], each weighing 18-28 g, 10 animals in each group, fasted for 16 hours before use. Dosage: Oral administration: […], 0.6580 (g/kg), intraperitoneal administration: 0.7743, 0.6582, 0.5594, 0.4755, 0.4042 (g/kg) dose gradient: 0.85. Route of administration: experimental methods of oral administration and intraperitoneal administration, 100 mice are selected, fasted for 16 hours, and randomly divided into 10 groups. Oral administration to the first 5 groups, and the dose being 0.35 ml/10 g; intraperitoneal administration to the latter 5 groups, and the dose being 0.2 ml/10 g.

A short description of series [2]: Material properties (granulation, stickiness, sieving) of levamlodipine besylate hydrate composition granules. Type of series: physicochemical. The following applies: granules of given crystalline water content, finishing of granulation, 10 mesh. The source says: In order to meet the requirements for the production of solid-form preparation plain tablets, the preparation is a direct compression method. As such, the granules of the active pharmaceutical ingredient need to pass through a sieve below 10 mesh to ensure content uniformity. […] A hydrate composition with a crystalline water content of less than 5.8% can meet the requirements of the finishing of granulation. […] The crystalline water content of the hydrate being controlled below 5.5% can better meet the requirements of making pharmaceutical preparations. 1. Production of Samples: the method of Example 2 is used to prepare samples with corresponding water content.

Series [3] is described as follows: Thermal stability of hydrate compositions, 45° C. oven for 5 days, impurities by HPLC. Type of series: physicochemical. The following applies: for Impurity Content, impurities before heating of sample: 0 days; for Impurity Content, sample placed in 45° C. oven for 5 days: amber glass bottles. The method, then: Using the method of Example 2 of the present invention, compositions with different crystalline water content can be prepared and used as samples to test thermal stability.
The samples are placed in amber glass bottles, placed in an oven, and the temperature is adjusted to 45° C., and the relevant substances are tested after settled for 5 days.
The test method is as follows: The chromatographic conditions and system applicability test: Use octadecylsilane-bonded silica gel as the filler; methanol-0.03 mol/L potassium dihydrogen phosphate solution (75:25) as the mobile phase, the detection wavelength is 238 nm, the number of theoretical plates should be no less than 500 calculated in levamlodipine.
Preparation of the Test Solution: Take about 17 mg of this product, precisely weigh it, put it in a 100 ml volumetric flask, add a mobile phase to dissolve and dilute to the mark, shake well, precisely measure 5 ml, put it in a 25 ml volumetric flask, add a mobile phase to the mark, shake well to obtain the solution.
Determination Method: Precisely measure 10 μl of the reference solution and the test solution, inject into the liquid chromatography machine, record the chromatogram, measure the peak area, and calculate by the external standard method.

Results on eight molecules are retold here after patent US12648937B2, “Composition containing levamlodipine besylate hydrate and its preparation method” (SHIHUIDA PHARMACEUTICALS GROUP (JILIN) LTD., priority 2019, dated 2026).

The structures appear in SMILES notation.

One may read the LD50 as the dose at which mortality reaches 50%. Low readings indicate greater toxicity, high ones lower toxicity. On to `CCOC(=O)C1=C(COCCN)NC(C)=C(C(=O)OC)[C@@H]1c1ccccc1Cl.O=S(=O)(O)c1ccccc1` [(4 s)-2-[(2-aminoethoxy)methyl]-4-(2-chlorophenyl)-6-methyl-1,4-dihydro-3,5-pyridinedicarboxylic acid-3-ethyl ester, 5-methyl ester benzenesulfonate hydrate], for which the LD50 at 7 days stood at 16 ± 1.38 mg/kg in series [1] (ip) and 24.9 ± 1.75 mg/kg in series [1] (po).
For `CCOC(=O)C1=C(COCCN)NC(C)=C(C(=O)OC)[C@@H]1c1ccccc1Cl.O=S(=O)(O)c1ccccc1` [5.9%], in series [2], the “Sieving Performance” value is recorded as “are less sticky”.
Regarding `CCOC(=O)C1=C(COCCN)NC(C)=C(C(=O)OC)[C@@H]1c1ccccc1Cl.O=S(=O)(O)c1ccccc1` [5.5%], in series [2], the “Sieving Performance” value was “have no stickiness” and the Stickiness result was “no stickiness”.
For `CCOC(=O)C1=C(COCCN)NC(C)=C(C(=O)OC)[C@@H]1c1ccccc1Cl.O=S(=O)(O)c1ccccc1` [5.8%] the same measures were “have essentially no” and “essentially no”.
For `CCOC(=O)C1=C(COCCN)NC(C)=C(C(=O)OC)[C@@H]1c1ccccc1Cl.O=S(=O)(O)c1ccccc1` [Sample 3], in series [3], the “Impurity Content, impurities before heating of sample” value (“Impurity Content … of sample” for short) is “None”. Further, the “Impurity Content, sample placed in 45° C. oven for 5 days” value (shortened to “Impurity Content, sample placed”) in series [3] (45° C. oven, 5 days) was “None”.
As for `CCOC(=O)C1=C(COCCN)NC(C)=C(C(=O)OC)[C@@H]1c1ccccc1Cl.O=S(=O)(O)c1ccccc1` [Sample 2], the “Impurity Content … of sample” value in series [3] was “None”. Moreover, the “Impurity Content, sample placed” value in series [3] (45° C. oven, 5 days) was “None”.
For `CCOC(=O)C1=C(COCCN)NC(C)=C(C(=O)OC)[C@@H]1c1ccccc1Cl.O=S(=O)(O)c1ccccc1` [Sample 1], the “Impurity Content … of sample” value in series [3] is recorded as “None”. Further, in series [3] (45° C. oven, 5 days), the “change in the appearance” value is on record as “no obvious change” and the “Impurity Content, sample placed” value amounted to 0.07%.
Turning to `CCOC(=O)C1=C(COCCN)NC(C)=C(C(=O)OC)[C@@H]1c1ccccc1Cl.O=S(=O)(O)c1ccccc1` [6.0%], the “Sieving Performance” value in series [2] is “stick together even”.
